# Source: paper PMC4769319, “Cohesin Releases DNA through Asymmetric ATPase-Driven Ring Opening” (Molecular Cell, 2016)
# Biological target: T1, Smc1/Smc3 heterodimer with Scc1-C (cohesin) (Saccharomyces cerevisiae, UniProt P32908+P47037, P32908:K39I, form not given)
# T1 construct: N-terminal tags; Sf9 insect cells; fluorescently labelled for MST; with Sister chromatid cohesion protein 1
# T1 sequence (P32908 1-1225 K39I): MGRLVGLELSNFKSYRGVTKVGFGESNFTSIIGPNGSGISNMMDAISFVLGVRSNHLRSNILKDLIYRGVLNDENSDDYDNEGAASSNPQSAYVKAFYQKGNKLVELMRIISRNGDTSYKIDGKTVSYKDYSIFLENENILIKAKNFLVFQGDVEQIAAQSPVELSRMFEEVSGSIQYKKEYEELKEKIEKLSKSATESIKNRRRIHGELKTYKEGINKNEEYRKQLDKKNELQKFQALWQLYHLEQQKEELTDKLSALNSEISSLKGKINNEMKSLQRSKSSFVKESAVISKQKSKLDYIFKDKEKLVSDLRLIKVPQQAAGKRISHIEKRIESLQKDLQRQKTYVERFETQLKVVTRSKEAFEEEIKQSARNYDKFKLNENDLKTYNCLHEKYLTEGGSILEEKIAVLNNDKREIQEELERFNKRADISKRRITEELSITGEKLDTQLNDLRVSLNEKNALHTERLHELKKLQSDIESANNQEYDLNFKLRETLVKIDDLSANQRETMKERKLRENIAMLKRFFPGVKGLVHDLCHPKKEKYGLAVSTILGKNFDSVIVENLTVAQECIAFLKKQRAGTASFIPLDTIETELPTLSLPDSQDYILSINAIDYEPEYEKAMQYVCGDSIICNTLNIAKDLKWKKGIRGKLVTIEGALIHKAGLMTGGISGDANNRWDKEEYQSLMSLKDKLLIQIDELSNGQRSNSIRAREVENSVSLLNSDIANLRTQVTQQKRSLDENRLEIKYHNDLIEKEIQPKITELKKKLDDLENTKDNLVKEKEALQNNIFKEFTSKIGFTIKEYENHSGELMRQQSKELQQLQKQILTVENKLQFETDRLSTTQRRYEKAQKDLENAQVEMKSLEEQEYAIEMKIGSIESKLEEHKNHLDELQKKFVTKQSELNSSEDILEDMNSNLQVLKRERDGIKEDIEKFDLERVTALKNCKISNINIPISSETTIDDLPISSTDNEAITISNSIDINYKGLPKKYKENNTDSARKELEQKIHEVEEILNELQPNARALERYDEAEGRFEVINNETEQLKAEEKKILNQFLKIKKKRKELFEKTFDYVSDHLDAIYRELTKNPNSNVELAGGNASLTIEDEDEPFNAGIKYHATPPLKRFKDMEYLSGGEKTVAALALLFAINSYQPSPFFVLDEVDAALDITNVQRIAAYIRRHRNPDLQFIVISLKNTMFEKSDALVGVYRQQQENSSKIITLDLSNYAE
# T1 sequence (P47037 1-1230): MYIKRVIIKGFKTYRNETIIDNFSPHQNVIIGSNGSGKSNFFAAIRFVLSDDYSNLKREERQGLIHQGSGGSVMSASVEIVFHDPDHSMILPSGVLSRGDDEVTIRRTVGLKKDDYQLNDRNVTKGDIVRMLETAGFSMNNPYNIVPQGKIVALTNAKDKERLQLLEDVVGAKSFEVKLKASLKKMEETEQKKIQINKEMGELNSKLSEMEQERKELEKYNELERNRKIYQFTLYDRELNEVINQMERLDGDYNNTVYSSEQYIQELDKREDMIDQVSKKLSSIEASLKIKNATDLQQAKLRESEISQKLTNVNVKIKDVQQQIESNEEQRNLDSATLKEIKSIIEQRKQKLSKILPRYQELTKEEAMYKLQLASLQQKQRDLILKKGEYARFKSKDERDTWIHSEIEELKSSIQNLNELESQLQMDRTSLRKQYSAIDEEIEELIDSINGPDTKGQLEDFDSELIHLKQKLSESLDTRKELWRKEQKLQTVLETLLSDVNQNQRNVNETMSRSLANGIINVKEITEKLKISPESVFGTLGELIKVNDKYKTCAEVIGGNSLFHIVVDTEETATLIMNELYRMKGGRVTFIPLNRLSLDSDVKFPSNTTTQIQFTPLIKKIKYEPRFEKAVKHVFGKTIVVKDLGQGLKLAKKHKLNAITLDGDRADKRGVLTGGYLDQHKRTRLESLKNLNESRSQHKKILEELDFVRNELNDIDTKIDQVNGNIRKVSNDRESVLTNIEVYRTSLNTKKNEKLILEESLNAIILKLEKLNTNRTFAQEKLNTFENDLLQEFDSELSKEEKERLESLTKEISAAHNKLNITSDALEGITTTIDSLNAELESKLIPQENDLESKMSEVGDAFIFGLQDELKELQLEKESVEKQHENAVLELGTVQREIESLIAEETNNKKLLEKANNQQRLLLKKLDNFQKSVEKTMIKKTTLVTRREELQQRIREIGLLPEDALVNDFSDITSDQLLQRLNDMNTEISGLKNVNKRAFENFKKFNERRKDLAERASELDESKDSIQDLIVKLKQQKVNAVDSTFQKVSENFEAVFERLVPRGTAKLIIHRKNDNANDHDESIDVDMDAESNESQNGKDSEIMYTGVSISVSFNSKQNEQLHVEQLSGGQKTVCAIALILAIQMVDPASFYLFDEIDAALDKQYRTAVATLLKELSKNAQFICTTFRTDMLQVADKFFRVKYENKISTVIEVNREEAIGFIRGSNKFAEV
# T1 sequence (Q12158 1-566 partner): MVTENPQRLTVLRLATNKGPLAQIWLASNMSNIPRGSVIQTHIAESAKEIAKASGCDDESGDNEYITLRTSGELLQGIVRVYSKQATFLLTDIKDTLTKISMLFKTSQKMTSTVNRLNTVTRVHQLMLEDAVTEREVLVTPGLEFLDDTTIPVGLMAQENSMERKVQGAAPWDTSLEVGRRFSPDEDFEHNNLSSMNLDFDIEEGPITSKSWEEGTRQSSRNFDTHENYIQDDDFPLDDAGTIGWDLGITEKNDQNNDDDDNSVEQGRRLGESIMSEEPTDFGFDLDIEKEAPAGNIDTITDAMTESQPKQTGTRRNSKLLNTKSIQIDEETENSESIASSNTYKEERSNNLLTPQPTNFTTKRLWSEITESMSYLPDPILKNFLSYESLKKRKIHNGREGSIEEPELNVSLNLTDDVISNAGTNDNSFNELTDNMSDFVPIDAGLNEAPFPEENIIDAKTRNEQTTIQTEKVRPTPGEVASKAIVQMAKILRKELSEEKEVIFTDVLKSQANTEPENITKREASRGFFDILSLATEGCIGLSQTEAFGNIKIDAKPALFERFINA
# Test: microscale thermophoresis
# Settings: fluorescently labelled protein; Smc1 co-purified with Scc1-C, plus Smc3; binding abrogated
row,SMILES,microscale thermophoresis
1,Nc1ncnc2c1ncn2[C@@H]1O[C@H](COP(=O)(O)OP(=O)(O)O)[C@@H](O)[C@H]1O [ADP],each of the Walker A mutations efficiently abrogated binding to ATP and ADP
2,Nc1ncnc2c1ncn2[C@@H]1O[C@H](COP(=O)(O)OP(=O)(O)OP(=O)(O)O)[C@@H](O)[C@H]1O [ATP],each of the Walker A mutations efficiently abrogated binding to ATP and ADP
